# PubChem BioAssay AID328 (DTP/NCI, 2004)
# “And” between values parts separate entries of the source, which are not always exact repeats. Equal values may be shown once. Inconclusive results and toxic doses are left out.
# System: BDF1 mice, P388 leukemia ip, median survival T/C
# Test: NCI In Vivo Anticancer Drug Screen. Data for tumor model P388 Leukemia (intraperitoneal) in B6D2F1 (BDF1) mice
# Conditions: endpoint: median survival time, higher = longer survival
# Procedure, shortened: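 Mice carrying the transplantable tumour receive compound or vehicle. Survival is followed in each arm, and the treated measure is divided by the vehicle measure.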
compound,measurement,setting,value
C(=C\c1nc2ccccc2[nH]1)/c1nc2ccccc2[nH]1,T/C,"dose: 25.0 mg/kg/injection, schedule: Q01DX009 (ip), vehicle: saline with Tween-80",100 % of control
same,T/C,"dose: 50.0 mg/kg/injection, schedule: Q01DX009 (ip), vehicle: saline with Tween-80",100 % of control
same,T/C,"dose: 100.0 mg/kg/injection, schedule: Q01DX009 (ip), vehicle: saline with Tween-80",92 % of control
same,T/C,"dose: 200.0 mg/kg/injection, schedule: Q01DX009 (ip), vehicle: saline with Tween-80",98 % of control
CCCc1nn2c(-c3ccccc3)nnc2o1,T/C,"dose: 100.0 mg/kg/injection, schedule: Q04DX003 (ip), vehicle: saline with Tween-80",110 % of control
same,T/C,"dose: 200.0 mg/kg/injection, schedule: Q04DX003 (ip), vehicle: saline with Tween-80",115 % of control
same,T/C,"dose: 400.0 mg/kg/injection, schedule: Q04DX003 (ip), vehicle: saline with Tween-80",110 % of control
O=NN(CCCl)C(=O)NCCCl,T/C,"dose: 0.5 mg/kg/injection, schedule: Q01DX001 (ip), vehicle: saline",111 % of control
same,T/C,"dose: 1.0 mg/kg/injection, schedule: Q01DX001 (ip), vehicle: saline",105 % of control
same,T/C,"dose: 2.0 mg/kg/injection, schedule: Q01DX009 (ip), vehicle: other",172 % of control and 180 % of control
same,T/C,"dose: 3.13 mg/kg/injection, schedule: Q01DX010 (ip), vehicle: saline",255 % of control and 260 % of control
same,T/C,"dose: 3.2 mg/kg/injection, schedule: Q01DX009 (ip), vehicle: saline + alcohol",195 % of control
same,T/C,"dose: 4.0 mg/kg/injection, schedule: Q01DX009 (ip), vehicle: other",227 % of control and 276 % of control
same,T/C,"dose: 4.8 mg/kg/injection, schedule: Q01DX009 (ip), vehicle: saline + alcohol",275 % of control and 276 % of control
same,T/C,"dose: 5.0 mg/kg/injection, schedule: Q01DX001 (ip), vehicle: saline",164 % of control
same,T/C,"dose: 6.25 mg/kg/injection, schedule: Q01DX010 (ip), vehicle: saline",300 % of control
same,T/C,"dose: 6.4 mg/kg/injection, schedule: Q01DX009 (ip), vehicle: saline + alcohol",319 % of control and 532 % of control
same,T/C,"dose: 7.5 mg/kg/injection, schedule: Q01DX001 (ip), vehicle: saline + alcohol",157 % of control and 200 % of control
same,T/C,"dose: 7.5 mg/kg/injection, schedule: Q01DX001 (ip), vehicle: saline",211 % of control
same,T/C,"dose: 8.0 mg/kg/injection, schedule: Q01DX009 (ip), vehicle: other",270 % of control and 514 % of control
same,T/C,"dose: 10.0 mg/kg/injection, schedule: Q01DX001 (ip), vehicle: saline",212 % of control
same,T/C,"dose: 12.0 mg/kg/injection, schedule: Q01DX001 (ip), vehicle: Klucel (hydroxypropylcellulose) (HPC)",119 % of control
same,T/C,"dose: 15.0 mg/kg/injection, schedule: Q01DX001 (ip), vehicle: saline + alcohol",253 % of control and 176 % of control
same,T/C,"dose: 15.0 mg/kg/injection, schedule: Q01DX001 (ip), vehicle: saline",159 % of control
same,T/C,"dose: 16.0 mg/kg/injection, schedule: Q01DX001 (ip), vehicle: saline + alcohol",196 % of control
same,T/C,"dose: 16.0 mg/kg/injection, schedule: Q01DX009 (ip), vehicle: other",100 % of control
same,T/C,"dose: 20.0 mg/kg/injection, schedule: Q01DX001 (ip), vehicle: saline",238 % of control and 154 % of control
same,T/C,"dose: 20.0 mg/kg/injection, schedule: Q#XHX024 (ip), vehicle: saline",229 % of control
same,T/C,"dose: 21.6 mg/kg/injection, schedule: Q01DX001 (ip), vehicle: other",175 % of control
same,T/C,"dose: 21.6 mg/kg/injection, schedule: Q01DX001 (ip), vehicle: saline + alcohol",152 % of control
same,T/C,"dose: 30.0 mg/kg/injection, schedule: Q01DX001 (ip), vehicle: saline",247 % of control and 564 % of control and 159 % of control
same,T/C,"dose: 30.0 mg/kg/injection, schedule: Q#XHX024 (ip), vehicle: saline",546 % of control
same,T/C,"dose: 32.0 mg/kg/injection, schedule: Q01DX001 (ip), vehicle: saline + alcohol",225 % of control
same,T/C,"dose: 36.0 mg/kg/injection, schedule: Q01DX001 (ip), vehicle: other",236 % of control
same,T/C,"dose: 36.0 mg/kg/injection, schedule: Q01DX001 (ip), vehicle: saline + alcohol",499 % of control
same,T/C,"dose: 40.0 mg/kg/injection, schedule: Q01DX001 (ip), vehicle: saline",266 % of control
same,T/C,"dose: 60.0 mg/kg/injection, schedule: Q01DX001 (ip), vehicle: saline + alcohol",88 % of control
same,T/C,"dose: 64.0 mg/kg/injection, schedule: Q01DX001 (ip), vehicle: saline + alcohol",281 % of control
Cc1nc(CN(C)C)c2cnccn12,T/C,"dose: 6.25 mg/kg/injection, schedule: Q01DX009 (ip), vehicle: saline",95 % of control
same,T/C,"dose: 12.5 mg/kg/injection, schedule: Q01DX009 (ip), vehicle: saline",104 % of control
same,T/C,"dose: 25.0 mg/kg/injection, schedule: Q01DX009 (ip), vehicle: saline",100 % of control
